Key:
[1] = Compound was tested for binding activity against Opioid receptor delta 1 in bovine striatal membranes using 0.2 nM [3H]p-CI-DPDPE as the radioligand.
[2] = Compound was tested for binding activity against Opioid receptor kappa 1 in bovine striatal membranes using 1 nM [3H]U-69593 as the radioligand.

Question: Which IC50 [1] does the source give for `O=C(CSSCC(=O)N[C@@]12CCC(=O)[C@@H]3Oc4c(O)ccc5c4[C@@]31CCN(CC1CCC1)[C@@H]2C5)N[C@@]12CCC(=O)[C@@H]3Oc4c(O)ccc5c4[C@@]31CCN(CC1CCC1)[C@@H]2C5` [N-CBM-TAMO] here?
Answer: 12 nM

Question: And the IC50 [2]?
Answer: 6.3 nM

— BindingDB's records for doi:10.1016/0960-894X(96)00186-2 (1996)
